Source: US20240190872A1, “FABI INHIBITORS FOR GRAM-NEGATIVE PATHOGENS” (THE BOARD OF TRUSTEES OF THE UNIVERSITY OF ILLINOIS, priority 2021, published 2024)
Values after ≈ are worked out from the molar mass of the structure shown.

What was measured:
[1] = test system: two E. coli, four K. pneumoneia, and four A. baumannii strains; experiment: MIC against Gram-negative clinical isolate challenge panel (ten isolates); type: cell-based
Procedure: (§1) The compounds synthesized, shown in Table 1, were evaluated against Gram-positive and Gram-negative reference strains (S. aureus 29213 and E. coli MG1655, respectively), as well as an efflux deficient E. coli strain (ΔtolC, JW5503).
(§2) Antimicrobial susceptibility tests. Susceptibility testing was performed in biological triplicate, using the micro-dilution broth method as outlined by the Clinical and Laboratory Standards Institute. Bacteria were cultured with cation-adjusted Muller-Hinton broth (Sigma-Aldrich, Cat# 90922) in round-bottom 96-well plates (Corning, Cat# 3788). Human serum (pooled gender, 0.2 μm filtered) was purchased from BioIVT (Hicksville, NY).

[2] = test system: S. aureus ATCC 29213; experiment: Antimicrobial susceptibility test (MIC), micro-dilution broth; type: cell-based; conditions: S. aureus ATCC 29213
Source text: (§3) Bacterial strains. S. aureus ATCC 29213, E. coli MG1655, E. coli BAA-2340, E. coli BAA-2469, E. coli BAA-2471, E. cloacae BAA-2341, E. cloacae BAA-2468, K. pneumoniae BAA-1705, K. pneumoniae BAA-2342, K. pneumoniae BAA-2470, K. pneumoniae BAA-2472, and K. pneumoniae BAA-2473 were obtained from ATCC. E. coli JW5503 and E. coli JW3596 were obtained from the KEIO Collection. E. cloacae ATCC 29893 was provided by W. van der Donk (UIUC). E. coli AR-0346, E. coli AR-0349, E. coli AR-0493, E. coli AR-0495, and K. pneumoniae AR-0347 were obtained from the CDC and FDA AR Isolate Bank. E. coli F20987, E. coli M66623, E. cloacae S28901.1, K. pneumoniae M14723, K. pneumoniae M67198, K. pneumoniae M67297, K. pneumoniae S20595, K. pneumoniae S47889, A. baumannii W41979, A. baumannii F19521, A. baumannii M13100, and A. baumannii WO22 were obtained from the University of Illinois Chicago Medical School. A. baumannii KB304, A. baumannii KB343, and A. baumannii KB357 were provided by J. Quale.
as §2

[3] = test system: E. coli ΔtolC (JW5503); type: cell-based; conditions: efflux deficient E. coli ΔtolC
Procedure: as §1, §3, §2

[4] = test system: E. coli MG1655; experiment: Antimicrobial susceptibility test (MIC); type: cell-based
Source text: as §3, §2

[5] = test system: K. pneumoniae BAA 2472; experiment: microbe, parasite or virus in culture; type: cell-based
Procedure: as §1, §3, §2

[6] = test system: K. pneumoniae AR 0560; experiment: microbe, parasite or virus in culture; type: cell-based
Procedure: as §2

[7] = test system: A. baumannii AR 0273; experiment: microbe, parasite or virus in culture; type: cell-based
Procedure: as §2

[8] = test system: E. coli AR 0048; experiment: microbe, parasite or virus in culture; type: cell-based
Procedure: as §2

[9] = test system: A. baumannii AR 0299; experiment: microbe, parasite or virus in culture; type: cell-based
Procedure: as §2

[10] = test system: A. baumannii AR 0033; experiment: microbe, parasite or virus in culture; type: cell-based
Procedure: as §2

[11] = test system: K. pneumoniae AR 0113; experiment: microbe, parasite or virus in culture; type: cell-based
Procedure: as §2

[12] = test system: E. coli AR 0085; experiment: microbe, parasite or virus in culture; type: cell-based
Procedure: as §2

[13] = test system: A. baumannii AR 0313; experiment: microbe, parasite or virus in culture; type: cell-based
Procedure: as §2

[14] = test system: K. pneumoniae AR 0066; experiment: microbe, parasite or virus in culture; type: cell-based
Procedure: as §2

[15] = target: A. baumannii FabI (Acinetobacter baumannii, UniProt D0CAD5); experiment: biochemical
Procedure: (§4) Mode of Action. To probe the effects of varying ring systems and amine placement on FabI target engagement, the apparent inhibition constants (Ki^app) for select compounds were determined using purified FabI. The goal of these studies was two-fold, to comparatively assess fabimycin, Debio-1452-NH3, and Debio-1452, and to also assess differential activity against the E. coli and A. baumannii versions of FabI. FabI from E. coli and A. baumannii were recombinantly expressed and purified, and the ability for each compound to inhibit the activity of these enzymes was evaluated using a standard FabI enzyme assay.
In vitro FabI inhibition assay. NADH (Sigma-Aldrich, Cat# N8129) and crotonoyl-CoA (Sigma-Aldrich, Cat# 28007) were both diluted into activity buffer [100 mM potassium glutamate (pH 7.8)], and working solution was dispensed into two columns of round-bottom 96-well plate (330 μL per well). Inhibitors, dissolved in DMSO at 200× final concentration, were added to each well via multichannel pipette (2.48 μL per well). After thorough mixing, this mixture was transferred to UV-transparent plate (UV-STAR half-area 96-well plate, Greiner Bio-One, Cat#675801, 100 μL per well, three technical replicates per inhibitor concentration). Plate was placed in plate-reader (SpectraMax 190, Molecular Devices) under temperature control (25° C.), and temperature was allowed to equilibrate. Fresh aliquot of enzyme from −80° C. was thawed on ice and diluted in activity buffer. Enzyme working solution was added to plate (50 μL per well, 20 nM enzyme final). After shaking for 5 s, reaction progress was monitored by absorbance at 340 nm every 15 s for 90 min. Linear portion of reaction progress curve was fit using plate-reader software (SoftMax Pro 7.0). Percent activity was calculated relative to DMSO-only and no-enzyme controls in each plate. Percent activity curves were fit to Morrison's quadratic using Graphpad Prism 6.0 to obtain apparent Ki.

[16] = target: HERG (Homo sapiens (Human), UniProt Q12809); experiment: cell-based
[17] = Plasma protein binding; conditions: human, plasma
[18] = test system: H. sapiens A549; experiment: In-vitro cytotoxicity; type: cell-based
[19] = test system: H. sapiens HFF-1; experiment: In-vitro cytotoxicity; type: cell-based
[20] = Plasma protein binding; conditions: mouse, plasma
[21] = target: E. coli FabI (Escherichia coli (strain K12), UniProt P0AEK4); experiment: In vitro FabI inhibition assay; type: biochemical
Procedure: as §4
In vitro FabI inhibition assay. NADH (Sigma-Aldrich, Cat# N8129) and crotonoyl-CoA (Sigma-Aldrich, Cat# 28007) were both diluted into activity buffer [100 mM potassium glutamate (pH 7.8)], and working solution was dispensed into two columns of round-bottom 96-well plate (330 μL per well). […] Plate was placed in plate-reader (SpectraMax 190, Molecular Devices) under temperature control (25° C.), and temperature was allowed to equilibrate. […] After shaking for 5 s, reaction progress was monitored by absorbance at 340 nm every 15 s for 90 min. Linear portion of reaction progress curve was fit using plate-reader software (SoftMax Pro 7.0). Percent activity was calculated relative to DMSO-only and no-enzyme controls in each plate. […]

[22] = test system: IMR90; experiment: Toxicity screen against mammalian cell lines (72 h), Alamar Blue; type: cell-based
Procedure: Cell culture. IMR90 cells were obtained from ATCC. IMR90 cells were grown in EMEM with 10% fetal bovine serum (Gemini Benchmark, Cat# 100-106), 100 U/mL penicillin, and 100 μg/mL streptomycin. All cells were cultured at 37° C. in a 5% CO2 environment. Media was prepared by the Univeristy of Illinois School of Chemical Sciences Cell Media Facility. Sex and age of cell lines: IMR90 ([…]).
Cell viability. Cells seeded (IMR90: 5,000 cells/well) a 96-well plate (Greiner Bio-One, Cat# 655180) and were allowed to attach overnight. […] Raptinal (100 μM) was used as a dead control. After 24 h post-treatment, media was exchanged with compound-free media. […] Stock Alamar Blue solution [10 μL, 440 μM resazurin (Sigma-Aldrich, Cat# R7017) in sterile 1×PBS] was added to each well, and plate was incubated […]. Conversion of Alamar Blue was measured with plate reader (SpectraMax M3, Molecular Devices) by fluorescence (ex 555 nm, em 585 nm, cutoff 570 nm, autogain). Percent death was determined by normalizing to DMSO-treated cells and raptinal-treated cells.

[23] = test system: Hep G2; experiment: Toxicity screen against mammalian cell lines (72 h); type: cell-based
[24] = Maximal tolerated dose (MTD) in mice
Procedure: Mouse MTD of Debio-1452-NH3. The protocol was approved by the IACUC at the University of Illinois at Urbana-Champaign (Protocol Number:16144). In these studies, 10- to 12-week-old female C57BL/6 mice purchased from Charles River were used. The maximum tolerate dose (MTD) of single compound was determined first. Debio-1452 amine analogues were formulated in 20% sulfobutyl ether β-cyclodextrin in sterile water. Debio-1452-NH3 (1), and compounds 2 and 3 were given by IP injection and mice were monitored for signs of toxicity for 2 weeks (single dose). For multiple dose, the compound was given by daily IP for 5 consecutive days and mice were monitored for signs of toxicity for 1 month. MTD was the highest dosage with acceptable toxicity (e.g. <20% weight loss). Single dose MTDs were initially determined. […] The MTD of Debio-1452-NH3 (1) was used to inform the dosing schedule used in subsequent efficacy studies.

[25] = female, C57BL/6, mouse, in vivo

Chain of A. baumannii FabI (D0CAD5 1-288): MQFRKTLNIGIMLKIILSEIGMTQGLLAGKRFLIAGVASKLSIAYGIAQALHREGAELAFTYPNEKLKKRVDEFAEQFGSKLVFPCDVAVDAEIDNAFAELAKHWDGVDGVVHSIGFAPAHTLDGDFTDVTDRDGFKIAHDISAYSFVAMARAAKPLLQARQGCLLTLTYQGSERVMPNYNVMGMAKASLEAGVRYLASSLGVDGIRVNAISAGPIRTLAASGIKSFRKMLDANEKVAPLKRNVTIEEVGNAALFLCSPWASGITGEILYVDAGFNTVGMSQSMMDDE
Chain of HERG (Q12809 whole entry): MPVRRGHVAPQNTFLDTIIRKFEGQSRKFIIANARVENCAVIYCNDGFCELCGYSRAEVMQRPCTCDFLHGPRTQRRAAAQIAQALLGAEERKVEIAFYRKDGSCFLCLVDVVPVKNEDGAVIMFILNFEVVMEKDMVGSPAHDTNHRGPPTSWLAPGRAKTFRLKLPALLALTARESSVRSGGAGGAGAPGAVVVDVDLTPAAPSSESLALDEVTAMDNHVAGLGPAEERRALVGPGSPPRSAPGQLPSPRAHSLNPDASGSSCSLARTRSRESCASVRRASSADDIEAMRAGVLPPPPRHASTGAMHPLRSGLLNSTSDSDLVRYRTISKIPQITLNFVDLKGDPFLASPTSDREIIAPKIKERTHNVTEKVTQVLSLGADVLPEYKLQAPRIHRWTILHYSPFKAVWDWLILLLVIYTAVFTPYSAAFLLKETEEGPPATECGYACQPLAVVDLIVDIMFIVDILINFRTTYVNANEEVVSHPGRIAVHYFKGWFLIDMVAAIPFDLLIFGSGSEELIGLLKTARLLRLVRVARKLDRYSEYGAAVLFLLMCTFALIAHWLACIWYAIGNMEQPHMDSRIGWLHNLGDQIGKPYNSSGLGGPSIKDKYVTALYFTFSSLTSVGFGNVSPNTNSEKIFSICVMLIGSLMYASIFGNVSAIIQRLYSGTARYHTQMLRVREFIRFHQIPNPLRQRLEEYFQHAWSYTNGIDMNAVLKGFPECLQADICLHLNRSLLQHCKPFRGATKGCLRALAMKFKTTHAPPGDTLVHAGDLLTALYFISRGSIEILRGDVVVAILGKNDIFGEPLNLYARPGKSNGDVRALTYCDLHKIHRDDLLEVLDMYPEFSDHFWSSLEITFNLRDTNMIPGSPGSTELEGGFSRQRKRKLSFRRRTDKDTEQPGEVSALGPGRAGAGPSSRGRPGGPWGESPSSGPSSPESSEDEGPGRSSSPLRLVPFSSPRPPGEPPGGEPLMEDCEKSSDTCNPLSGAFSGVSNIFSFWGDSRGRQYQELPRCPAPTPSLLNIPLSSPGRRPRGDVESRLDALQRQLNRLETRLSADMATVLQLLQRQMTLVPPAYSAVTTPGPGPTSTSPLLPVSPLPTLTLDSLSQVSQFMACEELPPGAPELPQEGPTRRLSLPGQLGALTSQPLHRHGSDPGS
Chain of E. coli FabI (P0AEK4 whole entry): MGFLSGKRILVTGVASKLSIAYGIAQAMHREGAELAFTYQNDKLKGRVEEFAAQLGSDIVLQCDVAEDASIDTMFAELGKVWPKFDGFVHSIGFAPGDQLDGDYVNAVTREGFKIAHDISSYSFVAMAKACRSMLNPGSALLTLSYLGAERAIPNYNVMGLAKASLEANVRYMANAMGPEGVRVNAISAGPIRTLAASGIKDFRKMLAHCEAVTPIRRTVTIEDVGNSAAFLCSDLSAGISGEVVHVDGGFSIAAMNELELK

In the case of Cc1c(CN(C)C(=O)/C=C/c2cnc3c(c2)CCC(N)C(=O)N3)oc2ccccc12 (racemic) [(±)-11], the “concentration at which all strains of the clinical isolate challenge panel are inhibited” value [1] is reported as ≤ 8 µg/mL, the “MIC S. aureus 29213” value [2] is reported as 0.016 µg/mL (≈ 0.0396 µM) and the “MIC E. coli ΔtolC” value [3] is reported as 0.031 µg/mL (≈ 0.0766 µM). The “MIC E. coli MG1655” value ([4]; E. coli MG1655) was 4 µg/mL (≈ 9.89 µM), the “MIC K. pneumoniae BAA 2472” value ([5]; clinical isolate) was 8 µg/mL (≈ 19.8 µM) and the “MIC K. pneumoniae AR 0560” value ([6]; clinical isolate) was 8 µg/mL (≈ 19.8 µM). The “MIC A. baumannii AR 0273” value ([7]; clinical isolate) was 8 µg/mL (≈ 19.8 µM), the “MIC E. coli AR 0048” value ([8]; clinical isolate) was 4 µg/mL (≈ 9.89 µM) and the “MIC A. baumannii AR 0299” value ([9]; clinical isolate) was 4 µg/mL (≈ 9.89 µM). The “MIC A. baumannii AR 0033” value ([10]; clinical isolate) was 4 µg/mL (≈ 9.89 µM), the “MIC K. pneumoniae AR 0113” value ([11]; clinical isolate) was 8 µg/mL (≈ 19.8 µM) and the “MIC E. coli AR 0085” value ([12]; clinical isolate) was 4 µg/mL (≈ 9.89 µM). The “MIC A. baumannii AR 0313” value ([13]; clinical isolate) was 8 µg/mL (≈ 19.8 µM) and the “MIC K. pneumoniae AR 0066” value ([14]; clinical isolate) was 8 µg/mL (≈ 19.8 µM).

Work on Cc1c(CN(C)C(=O)/C=C/c2cnc3c(c2)CC(N)C(=O)N3)oc2ccccc12 (racemic) [Debio-1452-NH3, (E)-3-(6-amino-7-oxo-5,6,7,8-tetrahydro-1,8-naphthyridin-3-yl)-N-methyl-N-((3-methylbenzofuran-2-yl)methyl)acrylamide] yielded a Ki [15] of 0.114 µM, an IC50 [16] of 5.7 µM and a fraction unbound [17] of 0.107. It also gave an inhibition at 30 µM [18] of 29 ± 4%, an IC50 ([18]; cytotoxicity) of 68 ± 4 µM and an inhibition at 30 µM [19] of 11 ± 2%. The IC50 ([19]; cytotoxicity) was 63 ± 33 µM, the fraction unbound [20] was 0.055 and the Ki [21] was 0.0035 ± 0.0005 µM.

In the case of Cc1c(CN(C)C(=O)/C=C/c2cnc3c(c2)CC(N)C(=O)N3)oc2ccccc12.Cl (stereo not drawn) [Debio-1452-NH3, (E)-3-(6-amino-7-oxo-5,6,7,8-tetrahydro-1,8-naphthyridin-3-yl)-N-methyl-N-((3-methylbenzofuran-2-yl)methyl)acrylamide, reference compound], the “IMR90 % Cell Death” value ([22]; 30 μM) is reported as 18 ± 4%, the “IMR90 % Cell Death” value ([22]; 100 μM) is reported as 69 ± 5% and the MIC ([2]; Staphylococcus aureus, ATCC29213, read-out: MIC S. aureus 29213) is reported as 0.031 µg/mL. For the same molecule, the “MIC E. coli ΔtolC” value [3] was 0.062 µg/mL, the MIC ([4]; Escherichia coli, MG1655) was 4 µg/mL and the “Hep G2 % Cell Death” value ([23]; 30 μM) was 29 ± 8%. The “Hep G2 % Cell Death” value ([23]; 100 μM) was 77 ± 3%, the MIC ([5]; Klebsiella pneumoniae, BAA2472, read-out: MIC K. pneumoniae BAA 2472, clinical isolate) was 16 µg/mL and the MIC ([6]; Klebsiella pneumoniae, AR0560, read-out: MIC K. pneumoniae AR 0560, clinical isolate) was 32 µg/mL. For the same molecule, the MIC ([7]; Acinetobacter baumannii, AR0273, read-out: MIC A. baumannii AR 0273, clinical isolate) was 32 µg/mL, the MIC ([8]; Escherichia coli, AR0048, read-out: MIC E. coli AR 0048, clinical isolate) was 32 µg/mL and the MIC ([9]; Acinetobacter baumannii, AR0299, read-out: MIC A. baumannii AR 0299, clinical isolate) was 32 µg/mL. The MIC ([10]; Acinetobacter baumannii, AR0033, read-out: MIC A. baumannii AR 0033, clinical isolate) was 32 µg/mL, the MIC ([11]; Klebsiella pneumoniae, AR0113, read-out: MIC K. pneumoniae AR 0113, clinical isolate) was 32 µg/mL and the MIC ([12]; Escherichia coli, AR0085, read-out: MIC E. coli AR 0085, clinical isolate) was 16 µg/mL. For the same molecule, the MIC ([13]; Acinetobacter baumannii, AR0313, read-out: MIC A. baumannii AR 0313, clinical isolate) was 32 µg/mL, the MIC ([14]; Klebsiella pneumoniae, AR0066, read-out: MIC K. pneumoniae AR 0066, clinical isolate) was 32 µg/mL and the “well tolerated daily dosing for 5 consecutive days” value ([24]; daily IP, 5 consecutive days, female C57BL/6 mice) was 50 mg/kg. The MTD at 2 weeks [24, 25] was 50 mg/kg, the MTD at 5 d [24, 25] was 50 mg/kg and the “Multi-day single-dose MTD” value ([24]; female, C57BL/6, mouse, in vivo, 5 d) was 50 mg/kg, 5 d. For the same molecule, the MTD at 2 weeks ([24]; female, C57BL/6, mouse, in vivo, ip) was 50 mg/kg.
